Experimental data as given in publication PMC7501296, “Rapid and direct control of target protein levels with VHL-recruiting dTAG molecules” (Nature Communications, 2020).

What was measured:
LACZ-FKBP12^F36V = assay: Immunoblot of PATU-8902 LACZ-FKBP12F36V clone; type: cell-based; details: PATU-8902 LACZ-FKBP12F36V cells, 4 h
Protocol: (§1) PATU-8902 LACZ-FKBP12^F36V and FKBP12^F36V-KRAS^G12V; KRAS^−/− cells and 293T cells were lysed with RIPA buffer supplemented with cOmplete protease inhibitors (Roche), PhosSTOP phosphatase inhibitors (Roche), and 0.1% benzonase (Novagen). Proteins were separated using NuPAGE Bolt^TM Bis–Tris gels (Thermo Fisher Scientific) and transferred to nitrocellulose membranes, which were blocked with Odyssey Blocking Buffer (LI-COR) and incubated with primary antibodies overnight. Membranes were washed three times with TBS-T, incubated with the appropriate fluorescently labeled infrared secondary antibodies, washed again three times with TBS-T, and assessed using an Odyssey CLx Imager (LI-COR)[6],[15]. EWS502 cells were lysed with Cell Lysis Buffer (Cell Signaling Technology) supplemented with cOmplete protease inhibitors (Roche). Proteins were separated using SDS-PAGE gels and transferred to PVDF membranes, which were blocked with 5% milk in TBS-T and incubated with primary antibodies overnight. Membranes were washed five times with TBS-T, incubated with the appropriate horseradish peroxidase-conjugated secondary antibodies, washed again five times with TBS-T, and imaged. […]

FKBP12^F36V-EWS/FLI = assay: Immunoblot of EWS502 FKBP12F36V-EWS/FLI; EWS/FLI-/- cells; type: cell-based
Protocol: To generate 293T^WT FKBP12^F36V-KRAS^G12V and 293T^VHL−/− FKBP12^F36V-KRAS^G12V cells, concentrated lentiviral supernatants[6] were applied to 293T^WT and 293T^VHL−/− cells[33] in the presence of 4 µg mL^−1 polybrene and transduced cell lines were selected with 2 µg mL^−1 puromycin. To generate EWS502 FKBP12^F36V-GFP cells, EWS502 cells were transduced with pLEX_305-dTAG-GFP lentiviral supernatant and selected with 1 µg mL^−1 puromycin. To generate EWS502 FKBP12^F36V-EWS/FLI; EWS/FLI^−/− cells, EWS502 cells were co-transduced with pLEX_305-dTAG-EWS/FLI and lentiCRISPR v2-Blast-sgFLI_Ex9 lentiviral supernatants. Cells were then selected with both 1 µg mL^−1 puromycin (pLEX_305-dTAG-EWS/FLI) and 5 µg mL^−1 blasticidin (lentiCRISPR v2-Blast-sgFLI_Ex9). Knockout of endogenous EWS/FLI and the expression of exogenous FKBP12^F36V-EWS/FLI were confirmed by immunoblot and pooled transduced cell populations were employed for this study. PATU-8902 LACZ-FKBP12^F36V and FKBP12^F36V-KRAS^G12V; KRAS^−/− clones were also employed in this study.
as §1

MED14 = system: MED14; design: method as in PMID 32483291; details: HCT116 cells; cited from earlier work
CDK9 = target: T1, CDK9 (Homo sapiens, UniProt P50750); assay: Immunoblot, co-treatment with THAL-SNS-032 and/or dTAGV-1 in PATU-8902 LACZ-FKBP12F36V clone; type: cell-based
T1 construct: endogenous in cells; host or cells: PATU-8902 LACZ-FKBP12^F36V clone
Protocol: as §1, with “imaged. The following primary antibodies were employed in this study: HA (Cell Signaling Technology #3724 and #2367, dilution at 1:1000), phospho-ERK1/2 T202/Y204 (Cell Signaling Technology #4370, dilution at 1:1000), ERK1/2 (Cell Signaling Technology #4696, dilution at 1:1000), phospho-AKT S473 (Cell Signaling Technology #4060, dilution at 1:1000), AKT (Cell Signaling Technology #2920, dilution at 1:1000), FKBP12 (Abcam #ab24373, dilution at 1:1000), GFP (Cell Signaling Technology #2555, dilution at 1:1000), FLI (Abcam #ab15289, dilution at 1:2000), NKX2-2 (Abcam #ab187375, dilution at 1:1000), GAPDH (Cell Signaling Technology #2118, dilution at 1:3000), Vinculin (Cell Signaling Technology #13901, dilution at 1:3000), β-Actin (Cell Signaling Technology #58169, dilution at 1:3000), and α-Tubulin (Cell Signaling Technology #3873, dilution at 1:5000).” for “imaged.”

## CC[C@H](C(=O)N1CCCC[C@H]1C(=O)O[C@H](CCc1ccc(OC)c(OC)c1)c1ccccc1OCC(=O)NCCCCCCC(=O)N[C@H](C(=O)N1C[C@H](O)C[C@H]1C(=O)N[C@@H](C)c1ccc(-c2scnc2C)cc1)C(C)(C)C)c1cc(OC)c(OC)c(OC)c1 [dTAG^V-1]
LACZ-FKBP12^F36V
  Degradation of FKBP12F36V-fusion (LACZ-FKBP12F36V), immunoblot: effective degradation
FKBP12^F36V-EWS/FLI; EWS502 FKBP12F36V-EWS/FLI, EWS/FLI-/- cells
  FKBP12F36V-EWS/FLI degradation, immunoblot: only susceptible to degradation upon treatment with dTAG^V-1
FKBP12^F36V-EWS/FLI; EWS502 cells
  Time of treatment at which FKBP12F36V-EWS/FLI degradation was evident: ≤ 1 h
MED14
  Degradation of MED14: effective degradation
CDK9; co-treatment dTAGV-1 + THAL-SNS-032, 24 h
  Degradation of both LACZ-FKBP12F36V and CDK9 on co-treatment: pronounced degradation
CDK9; dTAGV-1 alone, 24 h
  CDK9 protein levels: did not alter
